Columns and labels:
MEL cells = test: Inhibitor treatment of MEL cells, real-time RT-PCR of globin mRNA; assay type: cell-based, Mouse; conditions: for effect on expression levels of Hbb-b1/2 (adult globin): 48 hours treatment
Description: For studies testing inhibitors on MEL cells, the cells were treated with selected inhibitors or vehicle in culture medium (RPMI 1640 medium with 10% fetal bovine serum) for 48 hours and were subsequently harvested and analyzed for relative mRNA levels of Hbb-bh1 and Hbb-y using real-time RT-PCR.
Primers as used in the Examples as described herein are summarized below.

human CD34+ HSPCs [1] = test: Real-time RT-PCR of globin mRNA in erythroid cells differentiated from human CD34+ HSPCs; assay type: cell-based; conditions: 14 days of differentiation; for α-globin mRNA levels: vs DMSO (FIG. 8B)
Description: Human CD34^+ HSPCs treated with PTC596 (PTC) or MI-3454 (MI) at indicated concentrations or vehicle (DMSO) were induced to undergo erythroid differentiation. Cells were harvested after 14 days of differentiation for real-time RT-PCR analysis of human fetal γ (FIG. 8A), embryonic […] (FIG. 8B), and adult β (FIG. 8C) globin mRNA levels. Relative expression levels were calculated by normalizing to GAPDH mRNA levels in the same sample and also to cells treated with DMSO.
(§1) Primary human mobilized CD34^+ HSPCs (StemCell Technologies Inc.) were initially cultured in expansion medium containing StemSpan-XF Medium (StemCell Technologies Inc.) with 1× CC 100 cytokine mix (StemCell Technologies Inc.). Cells were maintained in this expansion medium at a density of 0.1-1×10^6 cells/ml for a total of 4 days with media changes every two days. On day 4, cells were induced to undergo erythroid differentiation in three phases as known in the art. Briefly, base medium for differentiation contains Iscove's Modified Dulbecco's Medium plus 2% human peripheral blood plasma (Innovative Research), 3% human AB serum (Sigma), […] human holo-transferrin (Sigma), 3 IU/mL heparin (Sigma), […] human insulin (Sigma), and 1% Penicillin-Streptomycin (Life Technologies Inc.). In the first phase (day 0 to day 6), cells were cultured at a concentration of 10^5 cells/ml in the presence of 10 ng/mL human stem cell factor (Biolegend), 1 ng/mL human IL-3 (Biolegend), and 3 IU/mL human erythropoietin (Janssen). In the second phase (day 7 to day 11), IL-3 was omitted from the first phase culture medium. In the third phase (day 12 to day 16), both stem cell factor and IL-3 were omitted and the concentration of transferrin was adjusted to 1 mg/ml. Cell density also was adjusted to 10^6 cells/ml in the beginning of this phase. Drug treatments were started at day 2 of expansion condition and maintained thereafter. New drugs were added every 1-2 days with medium change.
The effects of PTC596 and MI-3454 on human fetal (γ) and embryonic (ε) globin expression in erythroid cells produced in culture from primary human CD34^+ hematopoietic stem and progenitor cells (HSPCs) were further tested. […] PTC596, MI-3454, or control DMSO were added to the culture from day 2 of the expansion phase and were replenished upon media change every two days.

γ-Globin = test: Western blotting of γ-Globin in erythroid-differentiated human CD34+ HSPCs; assay type: cell-based; conditions: erythroid differentiation 14 days
Description: (§2) Western blotting analysis of protein levels of […], BMI1, MEN1, and control ACTIN in CD34^+ HSPCs were treated with PTC596 (PTC) at indicated concentrations (FIG. 9A), MI-3454 (MI) at indicated concentrations (FIG. 9B), or DMSO and induced to undergo erythroid differentiation for 14 days.
as §1, with “In the second phase (day 7 to day 11), IL-3 was omitted from the first phase culture medium. In the third phase (day 12 to day 16), both stem cell factor and IL-3 were omitted and the concentration of transferrin was adjusted to 1 mg/ml. Cell density also was adjusted to 10^6 cells/ml in the beginning of this phase. Drug treatments were started at day 2 of expansion condition and maintained thereafter. New drugs were added every 1-2 days with medium change.” left out

MEN1 = target: T1, MEN1 (Homo sapiens, UniProt O00255); test: Western blotting of MEN1 (MENIN) in erythroid-differentiated human CD34+ HSPCs; assay type: cell-based; conditions: erythroid differentiation 14 days
T1 construct: Western blotting analysis of protein levels of […], BMI1, MEN1, and control ACTIN in CD34^+ HSPCs; host or cells: primary human mobilized CD34+ HSPCs, erythroid differentiation for 14 days
T1 sequence (O00255 1-610): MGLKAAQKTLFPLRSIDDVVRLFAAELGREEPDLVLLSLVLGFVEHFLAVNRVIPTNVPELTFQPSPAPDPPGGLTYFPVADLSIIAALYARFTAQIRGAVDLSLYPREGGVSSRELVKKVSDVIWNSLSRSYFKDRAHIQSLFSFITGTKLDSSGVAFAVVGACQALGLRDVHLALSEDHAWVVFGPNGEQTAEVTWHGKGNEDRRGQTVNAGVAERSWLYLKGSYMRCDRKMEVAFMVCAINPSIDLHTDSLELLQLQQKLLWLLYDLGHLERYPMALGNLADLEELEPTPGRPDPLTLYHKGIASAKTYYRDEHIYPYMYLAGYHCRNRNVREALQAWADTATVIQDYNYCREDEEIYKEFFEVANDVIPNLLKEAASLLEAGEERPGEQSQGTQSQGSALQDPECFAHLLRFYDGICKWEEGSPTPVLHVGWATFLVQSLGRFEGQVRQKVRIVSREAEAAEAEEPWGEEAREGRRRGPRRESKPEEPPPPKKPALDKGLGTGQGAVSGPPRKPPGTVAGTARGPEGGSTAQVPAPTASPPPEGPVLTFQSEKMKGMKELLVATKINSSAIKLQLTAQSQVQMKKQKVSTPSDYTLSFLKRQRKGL
Description: as §2
as §1, with “In the second phase (day 7 to day 11), IL-3 was omitted from the first phase culture medium. In the third phase (day 12 to day 16), both stem cell factor and IL-3 were omitted and the concentration of transferrin was adjusted to 1 mg/ml. Cell density also was adjusted to 10^6 cells/ml in the beginning of this phase. Drug treatments were started at day 2 of expansion condition and maintained thereafter. New drugs were added every 1-2 days with medium change.” left out

human CD34+ HSPCs [2] = test: Flow cytometry of F-cells (anti-HbF) in cultures of human CD34+ HSPCs; assay type: cell-based; conditions: erythroid differentiation 14 days
Description: Cells were fixed with glutaraldehyde, permeabilized, and stained with a PE-conjugated anti-HbF antibody. The percentages of F-cells are indicated.
as §1, with “In the third phase (day 12 to day 16), both stem cell factor and IL-3 were omitted and the concentration of transferrin was adjusted to 1 mg/ml. Cell density also was adjusted to 10^6 cells/ml in the beginning of this phase. Drug treatments were started at day 2 of expansion condition and maintained thereafter. New drugs were added every 1-2 days with medium change.” left out

human CD34+ HSPCs [3] = test: Cytospin analysis of erythroid differentiation of human CD34+ HSPCs; assay type: cell-based; conditions: after 14 days of differentiation
Description: FIG. 7 is a cytospin analysis showing erythroblasts and reticulocytes in cultures of human CD34^+ HSPCs treated with PTC596 and MI-3454 and induced to undergo erythroid differentiation for 14 days. Cells were stained using Hema 3 staining system (Fisher Scientific). Scale bar, […].
as §1, with “In the second phase (day 7 to day 11), IL-3 was omitted from the first phase culture medium. In the third phase (day 12 to day 16), both stem cell factor and IL-3 were omitted and the concentration of transferrin was adjusted to 1 mg/ml. Cell density also was adjusted to 10^6 cells/ml in the beginning of this phase. Drug treatments were started at day 2 of expansion condition and maintained thereafter. New drugs were added every 1-2 days with medium change.” left out

BMI1 = target: T2, BMI1 (Homo sapiens, UniProt P35226); test: Western blotting of BMI1 in erythroid-differentiated human CD34+ HSPCs; assay type: cell-based; conditions: erythroid differentiation 14 days
T2 construct: Western blotting analysis of protein levels of […], BMI1, MEN1, and control ACTIN in CD34^+ HSPCs; host or cells: primary human mobilized CD34+ HSPCs, erythroid differentiation for 14 days
T2 sequence (P35226 1-326): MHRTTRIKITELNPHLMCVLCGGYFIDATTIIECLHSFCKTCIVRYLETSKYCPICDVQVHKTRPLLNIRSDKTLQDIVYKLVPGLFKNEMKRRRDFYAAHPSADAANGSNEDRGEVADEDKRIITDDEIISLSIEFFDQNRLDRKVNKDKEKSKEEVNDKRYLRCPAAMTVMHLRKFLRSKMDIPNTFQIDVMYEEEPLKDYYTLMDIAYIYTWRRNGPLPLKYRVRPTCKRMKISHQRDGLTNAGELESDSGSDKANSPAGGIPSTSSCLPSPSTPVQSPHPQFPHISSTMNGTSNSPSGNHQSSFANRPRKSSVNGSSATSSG
Description: as §2
as §1, with “In the second phase (day 7 to day 11), IL-3 was omitted from the first phase culture medium. In the third phase (day 12 to day 16), both stem cell factor and IL-3 were omitted and the concentration of transferrin was adjusted to 1 mg/ml. Cell density also was adjusted to 10^6 cells/ml in the beginning of this phase. Drug treatments were started at day 2 of expansion condition and maintained thereafter. New drugs were added every 1-2 days with medium change.” left out

[4] = tested concentrations, 48 hours
[5] = 50 nM, 48 hours, relative to DMSO, normalized to Rpl4

MENIN protein levels (MEN1)	erythroid differentiation (erythroblasts and reticulocytes observed) (human CD34+ HSPCs [3])	BMI1 protein levels (BMI1)	SMILES	effect on expression levels of Hbb-b1/2 (adult globin) (MEL cells)	Hbb-bh1 mRNA levels (MEL cells; [4])	Hbb-y mRNA levels (MEL cells; [4])	percentage of γ-globin expression levels in total β-like globin (β+γ+ε) expression levels (human CD34+ HSPCs [1]; vs DMSO)	β-globin mRNA levels (human CD34+ HSPCs [1]; vs DMSO)	γ-globin mRNA levels (human CD34+ HSPCs [1]; vs DMSO)	α-globin mRNA levels (human CD34+ HSPCs [1])	γ-Globin protein levels (γ-Globin)	percentage of F-cells (human CD34+ HSPCs [2])	increase of Hbb-bh1 mRNA levels (MEL cells; [5]) [fold]	increase of Hbb-y mRNA levels (MEL cells; [5]) [fold]
reduced	not blocked	–	CNc1nc(NC2CCN(Cc3ccc4c(cc(C#N)n4CC45CC(NC=O)(C4)C5)c3C)CC2)c2cc(CC(F)(F)F)sc2n1 [MI-3454]	minor changes	significant increases	significant increases	significant increase	increase	significantly increased	significantly increased	increased	higher percentage	–	–
–	not blocked	reduced	Cc1nc2ccc(F)cc2n1-c1nc(N)c(F)c(Nc2ccc(C(F)(F)F)cc2)n1 [PTC596]	minimal effects	–	–	significant increase	–	significantly increased	significantly increased	increased	higher percentage	~20	~15
–	–	–	CCN(C(=O)c1cc(F)ccc1Oc1cncnc1N1CC2(CCN(C[C@H]3CC[C@H](NS(=O)(=O)CC)CC3)CC2)C1)C(C)C [SNDX-5613]	–	significantly increased	–	–	–	–	–	–	–	–	–

Reference: US20240100049A1, “REACTIVATION OF EMBRYONIC AND FETAL HEMOGLOBIN” (The Henry M. Jackson Foundation for the Advancement of …, priority 2021, published 2024)
